In patent US20230340012A1, “NATURAL AND SYNTHETIC COMPOUNDS FOR TREATING CANCER AND OTHER DISEASES” (PACIFIC ARROW LIMITED, priority 2009, published 2023):
≈ marks a conversion by molar mass, not a printed value. Where “and” joins values, the source holds several entries; their conditions need not be identical. Equal entries are not always repeated.

Legend:
WI38 = assay: MTT assay, normal human lung fibroblast (WI38); format: cell-based
Procedure: Method: A. Cells • -WI38 is a Normal Lung fibroblast. Cells were grown in MEM medium supplemented with 10% FCS, antibiotics and glutamine. 20 K cells were seeded per well (96-welled plate) for one day before drug-treatment • -ES2 is an Ovary Clear cells carcinoma. Cells were grown in RPMI-1640 medium supplemented with 10% FCS, antibiotics and glutamine. 10 K cells were seeded per well (96-welled plate) for one day before drug-treatment.
B. Drug treatment: • -Drug: Tig-S. stored as 1000x stock solution in DMSO. • -Drug concentration used: from 0.15 - 20 ug/ml. • -Drug-treatment was carried out for 2 days (ES2) or 6 days (WI38). For the 6 days incubation, cells were fed with fresh medium (with drug) on day 3 and 5.
C. At the end of the drug-treatment, cytotoxic test was performed with MTT assay.

Y79 (retinoblastoma) = assay: Inhibition of eye cancer cells Y79 (retinoblastoma), MTT; format: cell-based, human; conditions: 2 days
Procedure: Cells: Human Eye cancer cells Y79 (retinoblastoma) are cultured in RPMI1640 medium supplemented with 20% FCS, glutamine and antibiotics.
Starting cells concentration: 400 K per ml in a 24-well plate.
Drug: Tig-S and Tig-R (100× stock solution in 10%DMSO-90% RPMI-1640).
Drug-treatment: Cells were cultured with or without drug (DMSO control) for 2 days. After Drug-treatment, the quantity of live cells is determined with MTT assay*. With this method, the percentage of cell growth with drugs was determined by comparing to those of no-drug (DMSO) control.
MTT assay. To measure the amount of live cells, MTT (3-[4,5-Dimethylthiazol-2-yl]-2,5-diphenyl-tetrazolium bromide) (0.5 mg/ml) was added to cultures and incubated for an hour. Cells were then collected by centrifugation. The formation of formazan (proportion to live cells activity) in the cells was dissolved with DMSO and the O.D. at 490 nm was measured by an ELISA reader. The MTT level of cells before drug-treatment (T0) and after the drug-treatment (TD) was measured. The % cell-growth (%G) is calculated as: %G = (TD-T0) / (TC-T0) × 100 where TC or TD represent O.D. readings of control or drug-treated cells.
When T0 > TD, then the negative growth (cytotoxicity) is expressed as - % of the control and is calculated as: - %G = (TD-T0) / T0) × 100.

[1] = system: DR5 (TNFRSF10B) in ES2 cells; assay: Induction of DR5 in ES2 cells, Western blot; format: cell-based, human; conditions: experiment 1, column head R 7.5, 2 days
cancer cells = assay: MTT cytotoxic assay of esterification products (Cytotoxicity activity); format: cell-based, human
Procedure, shortened: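 Cytotoxicity was read by MTT (Carmichael method, modified), with cells seeded 24 h ahead of treatment. Sixteen human cancer lines spanning bone, lung, bladder, ovary, colon, pancreas, prostate, skin, mouth, kidney, breast, liver, brain, leukemia and cervix were used. Test samples were acyl chloride esterification products of triterpenes, as mixtures or HPLC-purified compounds.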

Erythrocytes (RBC) = assay: The haemolytic assay
Procedure: Erythrocytes (RBC) were isolated from human blood (EDTA whole blood, collected randomly). 50 ul of the 10% RBC suspension (in PBS) was added to 2 ml of sample solutions (concentration range from 0.1 ug/ml to 400 ug/ml) in PBS. The mixture was vortexed briefly and sat for 60 min at room temperature. The mixture was spun at 3 K for 10 min and the relative amounts of lysed hemoglobin in the supernatant were measured at 540 nm.

[2] = system: DR5 (TNFRSF10B) in U2OS cells; assay: DR5 Western blot, U2OS cells; format: cell-based, human
[3] = esterification products isolated with HPLC, graded strong / moderate / weak
[4] = U2OS cells, Tig-R, single experiments 1-2

Row | Compound | IC50, WI38 cells (WI38; 6 days drug treatment, MTT) [µg/mL] | % of the control cell growth, WI38 (WI38; at 10 ug/ml) | MTT OD as % of the original value, WI38 (WI38; at 20 ug/ml) | cell loss or death, WI38 (WI38; at 20 ug/ml) | cells died, WI38 (WI38; with 10 ug/ml) [%] | IC50, eye cancer Y79 retinoblastoma (Y79 (retinoblastoma)) [µg/mL] | IC50 in normal human fibroblast cells (WI38) (WI38; MTT) [µg/mL] | DR5 Western blot band intensity (Image J) [1] | DR5 band intensity, % of DMSO [1] [%] | Cytotoxicity activity (cancer cells; [3]) | hemolytic activity (Erythrocytes (RBC); in words, no concentration given) | hemolytic activity (Erythrocytes (RBC); up to 20 ug/ml) | DR5 band intensity, % of DMSO, Average (%) ([2]; U2OS cells, Tig-R, average of 2 experiments) | DR5 Western blot band intensity (Image J) [2, 4] | DR5 band intensity, % of DMSO [2, 4] | increase of DR5 over DMSO control cells ([2]; U2OS, Tig-R treatment) [%] | Cytotoxicity activity (cancer cells; esterification products of E4A—Tig—N with senecioyl chloride)
1 | CC=C(C)C(=O)OCC1(C)C(O)CCC2(C)C1CCC1(C)C2CC=C2C3CC(C)(C)C(OC(=O)C(C)=CC)C(O)C3(CO)C(O)CC21C (centres unmarked) [Tig-S] | 1.5 (≈ 2.24 µM) | about 55% | about 90% | about 10% | 10 | 0.1 (≈ 0.149 µM) | – | – | – | – | – | – | – | – | – | – | –
2 | 24,28-O-Tigloyl-3β,16α, 21β, 22a, 24β, 28-hexahydroxyolean-12-ene [Tig-R] | – | – | – | – | – | 7.5 | 10 to 15 | 29902 | 157 | strong | no hemolytic activity | do not have hemolytic activity | 206 | 18269 and 16969 | 209% and 203% | 106 | –
3 | CC=C(C)C(=O)OCC1(C)C(O)CCC2(C)C1CCC1(C)C2CC=C2C3CC(C)(C)C(O)C(O)C3(CO)C(O)CC21C (centres unmarked) [Tig-N] | – | – | – | – | – | – | – | – | – | moderate | – | do not have hemolytic activity | – | – | – | – | moderate
